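How tested: cells in 96-well plates exposed to compound for 48 hours at five concentrations. Abbreviation: GI50, concentration required for 50% inhibition of growth.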 Calls of active or inactive are those of the source. No stated cut-off is given here; in the data, active = GI50 up to about 1.1 µM and inactive = higher.
Legend:
Assay in all cases: DTP human tumour cell line panel, 48 h
[1] = system: NCI-H460
[2] = system: TK-10
[3] = system: A549
[4] = system: SK-OV-3
[5] = system: UACC-257
[6] = system: NCI-H23
[7] = system: SW-620
[8] = system: HT-29
[9] = system: HCC 2998
[10] = system: CCRF-CEM
[11] = system: OVCAR-5
[12] = system: SNB-19
[13] = system: U-251
[14] = system: KM-20L2
[15] = system: COLO 205
[16] = system: MDA-N
[17] = system: NCI-H226
[18] = system: BT-549
[19] = system: MDA-MB-435
[20] = system: MCF7

Measured: GI50

COCOCCC#CCO
inactive: [1] > 100 µM | [2] > 100 µM | [3] > 100 µM | [4] > 100 µM | [5] > 100 µM | [6] 32.4 µM | [7] > 100 µM | [8] > 100 µM | [9] > 100 µM | [10] > 100 µM | [11] > 100 µM | [12] > 100 µM | [13] > 100 µM | [14] > 100 µM

Clc1ccc(CCN2CCOCC2)c(Cl)c1
inactive: [1] > 100 µM | [3] > 100 µM | [4] > 100 µM | [5] > 100 µM | [15] > 100 µM | [6] > 100 µM | [8] > 100 µM | [9] > 100 µM | [10] > 100 µM | [11] > 100 µM | [12] > 100 µM | [13] > 100 µM | [14] > 100 µM

Cc1ccc2nc(C(=O)O)c(=O)[nH]c2c1
inactive: [1] > 100 µM | [2] > 100 µM | [16] > 100 µM | [3] > 100 µM | [17] > 100 µM | [4] > 100 µM | [5] > 100 µM | [18] > 100 µM | [15] > 100 µM | [6] > 100 µM | [7] > 100 µM | [19] > 100 µM | [8] > 100 µM | [9] > 100 µM | [10] > 100 µM | [20] > 100 µM | [11] > 100 µM | [12] > 100 µM | [13] > 100 µM

NC(=O)C(=CNC(=S)Nc1ccc(S(=O)(=O)Nc2ccccn2)cc1)C(N)=O
inactive: [1] > 100 µM | [2] > 100 µM | [16] > 93.8 µM | [3] > 100 µM | [17] > 100 µM | [4] > 100 µM | [5] > 100 µM | [18] > 100 µM | [15] > 100 µM | [6] > 100 µM | [7] 39.3 µM | [19] > 100 µM | [8] > 100 µM | [9] > 10 µM | [10] 30 µM | [20] > 83.2 µM | [11] > 100 µM | [12] > 100 µM | [13] > 100 µM

O=[N+]([O-])/C(C(Cl)=C(Cl)Cl)=C(\N1CCCCC1)n1cncn1
inactive: [1] 26.2 µM | [2] 17.2 µM | [16] 14.4 µM | [3] 19.7 µM | [17] 18.3 µM | [4] 17.6 µM | [5] 17.5 µM | [18] 17.5 µM | [15] 15.7 µM | [6] 15.2 µM | [7] 15.8 µM | [19] 17.9 µM | [8] 17.7 µM | [9] 20 µM | [10] 3.79 µM | [20] 14.9 µM | [11] 16.2 µM | [12] 17.7 µM | [13] 13.3 µM

CC1=NN(C(=O)Nc2ccc(Cl)cc2)C(=O)C2CCC(=O)N12 (configuration not stated)
inactive: [1] 28.3 µM | [2] > 100 µM | [3] 49.3 µM | [4] 38.7 µM | [5] 49.3 µM | [15] > 100 µM | [6] 74.1 µM | [7] > 100 µM | [9] > 100 µM | [10] > 100 µM | [12] > 100 µM | [13] > 100 µM | [14] 4.38 µM

CCOC1NC(=O)Oc2ccccc21 (configuration not stated)
inactive: [1] > 100 µM | [2] > 100 µM | [16] > 100 µM | [3] > 100 µM | [17] > 100 µM | [4] > 100 µM | [5] > 100 µM | [18] > 100 µM | [15] > 100 µM | [6] > 100 µM | [7] > 100 µM | [19] > 100 µM | [8] > 100 µM | [9] > 100 µM | [10] > 100 µM | [20] > 100 µM | [11] > 100 µM | [12] > 100 µM | [13] > 100 µM

CCOP(=O)(OCC)C1CCCCOC1=O (configuration not stated)
inactive: [1] 51.2 µM | [2] > 100 µM | [3] > 100 µM | [4] > 100 µM | [5] > 100 µM | [15] > 100 µM | [6] > 100 µM | [7] > 100 µM | [8] > 100 µM | [9] > 100 µM | [10] 76.7 µM | [12] > 100 µM | [13] > 100 µM | [14] > 100 µM

CC1=C(C(=O)CC(=O)C(=O)Nc2ccccc2)Sc2ccccc2N1
inactive: [1] > 100 µM | [3] > 100 µM | [17] > 100 µM | [4] > 100 µM | [5] > 100 µM | [15] > 100 µM | [6] > 100 µM | [7] > 100 µM | [8] > 100 µM | [10] > 100 µM | [11] > 100 µM | [12] > 100 µM | [13] > 100 µM | [14] > 100 µM

O=C(Cn1ccnc1[N+](=O)[O-])NCc1ccc(F)cc1
inactive: [1] > 100 µM | [2] > 100 µM | [3] > 100 µM | [17] 40.2 µM | [4] > 100 µM | [5] > 100 µM | [15] > 100 µM | [6] > 100 µM | [7] > 100 µM | [8] > 100 µM | [10] > 100 µM | [11] > 100 µM | [12] > 100 µM | [13] > 100 µM | [14] > 100 µM

CNC(C#N)c1ccc(OC)cc1 (configuration not stated)
inactive: [1] > 100 µM | [2] > 100 µM | [16] 33.1 µM | [3] > 100 µM | [17] > 100 µM | [4] > 100 µM | [5] 54.8 µM | [18] > 100 µM | [15] 71.3 µM | [6] > 100 µM | [7] 94.2 µM | [19] 33.6 µM | [8] 61.1 µM | [9] > 100 µM | [10] 53.3 µM | [20] > 100 µM | [11] > 100 µM | [12] > 100 µM | [13] 53.3 µM

O=c1c2cc([N+](=O)[O-])cnc2sn1-c1ccc(Br)cc1
inactive: [1] 66.8 µM | [2] > 100 µM | [16] > 100 µM | [3] 42.3 µM | [17] 73.6 µM | [4] 14.8 µM | [5] > 100 µM | [18] 91.4 µM | [15] 47.2 µM | [6] 29.6 µM | [7] 28.3 µM | [19] > 100 µM | [8] 27.2 µM | [9] 91 µM | [10] 22.9 µM | [20] 26 µM | [11] 38.4 µM | [12] 38.8 µM | [13] 34.4 µM
